The results in this text go back to doi:10.1101/2021.03.02.433618v2 (biorxiv, 2021).

Read-outs that look alike come from different tables or passages of the source.

The target of experiment [1] is T1, 3CLpro (Severe acute respiratory syndrome coronavirus 2, UniProt P0DTD1). Kind of experiment: biochemical.
In experiment [2] the target is T1, 3CLpro. Kind of experiment: biochemical. This is another data set of the same source.

Regarding `O=c1cc(-c2ccc(O)c(-c3c(O)cc(O)c4c(=O)cc(-c5ccc(O)cc5)oc34)c2)oc2cc(O)cc(O)c12` [amentoflavone], the IC50 (usually the concentration that inhibits the measured activity by half) in experiment [1] came to 143 ± 23 µM.

`CC(=O)c1c(O)c(C)c(O)c(Cc2c(O)c3c(c(C(=O)/C=C/c4ccccc4)c2O)OC(C)(C)C=C3)c1O` [rottlerin]: 37 µM corresponded to half-maximal inhibition in experiment [2] (IC50).

In the case of `O=c1cc(-c2ccc(O)c(O)c2)oc2cc(O)cc(O)c12` [luteolin], the IC50 in experiment [1] was found to be 343 ± 77 µM.
